According to the Kinase Knowledgebase extract (Sharma et al. 2016):

Biological target: PIK3CA (human) (UniProt P42336)
Test: Inhibition of PIK3CA Kinase Activity

Sequence of PIK3CA (human) (P42336 whole entry, looked up): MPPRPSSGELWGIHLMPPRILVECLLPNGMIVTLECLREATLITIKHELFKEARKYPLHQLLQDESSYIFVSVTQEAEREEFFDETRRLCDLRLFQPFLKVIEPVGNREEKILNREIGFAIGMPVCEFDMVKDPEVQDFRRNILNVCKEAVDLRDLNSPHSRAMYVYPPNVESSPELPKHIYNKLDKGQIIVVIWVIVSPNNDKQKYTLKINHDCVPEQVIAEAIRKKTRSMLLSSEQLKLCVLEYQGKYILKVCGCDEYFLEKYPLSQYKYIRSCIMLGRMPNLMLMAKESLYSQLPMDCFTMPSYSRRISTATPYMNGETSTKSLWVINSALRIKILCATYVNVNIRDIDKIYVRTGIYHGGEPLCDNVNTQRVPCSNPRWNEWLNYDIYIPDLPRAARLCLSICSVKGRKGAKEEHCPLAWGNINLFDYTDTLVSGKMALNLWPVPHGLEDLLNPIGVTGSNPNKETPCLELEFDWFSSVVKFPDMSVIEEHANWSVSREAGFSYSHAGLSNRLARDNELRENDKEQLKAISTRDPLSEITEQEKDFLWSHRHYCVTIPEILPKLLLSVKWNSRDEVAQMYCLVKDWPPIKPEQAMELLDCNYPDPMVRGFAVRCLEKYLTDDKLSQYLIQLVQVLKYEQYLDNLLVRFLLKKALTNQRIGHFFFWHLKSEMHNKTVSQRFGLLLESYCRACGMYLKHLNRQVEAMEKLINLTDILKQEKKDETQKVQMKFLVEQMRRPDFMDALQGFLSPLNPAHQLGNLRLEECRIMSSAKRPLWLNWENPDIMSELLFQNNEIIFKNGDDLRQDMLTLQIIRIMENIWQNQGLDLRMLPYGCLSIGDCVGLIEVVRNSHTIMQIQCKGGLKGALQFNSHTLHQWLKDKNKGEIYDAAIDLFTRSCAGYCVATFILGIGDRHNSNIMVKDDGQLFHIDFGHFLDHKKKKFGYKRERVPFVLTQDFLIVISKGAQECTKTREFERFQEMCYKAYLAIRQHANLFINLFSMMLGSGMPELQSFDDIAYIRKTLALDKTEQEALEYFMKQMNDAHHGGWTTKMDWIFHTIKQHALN

`CCC(C)n1c(NC(C)C)nc2c(-c3cnc(N)nc3)nc(N3CCOCC3)nc21` (centres undefined) and `CC(C)Nc1nc2c(-c3cnc(N)nc3)nc(N3CCOCC3)nc2n1C(C)C` cannot be ordered by IC50: < 100 nM for the first, < 100 nM for the second.

Compared with `CCC(C)n1c(N(C)C)nc2c(-c3cnc(N)nc3)nc(N3CCOCC3)nc21` (centres undefined), `CCC(C)n1c(NCCN(C)C)nc2c(-c3cnc(N)nc3)nc(N3CCOCC3)nc21` (centres undefined) is higher in IC50: < 100 nM for the first, 100 to 1000 nM for the second. The first is the more potent here.

`CCC(C)n1c(NCCOC)nc2c(-c3cnc(N)nc3)nc(N3CCOCC3)nc21` (centres undefined) and `CCCCNc1nc2c(-c3cnc(N)nc3)nc(N3CCOCC3)nc2n1C(C)CC` (centres undefined) cannot be ordered by IC50: < 100 nM for the first, < 100 nM for the second.

Compared with `CC(C)n1c(-c2ccccc2)nc2c(-c3cnc(N)cn3)nc(N3CCOCC3)nc21`, `CC(C)n1c(-c2ccccc2)nc2c(-c3cnc(N)nc3)nc(N3CCOCC3)nc21` is lower in IC50: 100 to 1000 nM for the first, < 100 nM for the second.

`CC(C)Nc1nc2c(-c3cnc(N)nc3)nc(N3CCOCC3)nc2n1C1CCCCC1C` (centres undefined) and `CC(C)Nc1nc2c(-c3cnc(N)nc3)nc(N3CCOCC3)nc2n1C1CCCC1` cannot be ordered by IC50: < 100 nM for the first, < 100 nM for the second.

`CCC(C)n1c(-c2ccccc2)nc2c(-c3cnc(N)nc3)nc(N3CCOCC3)nc21` (centres undefined) and `CCC(C)n1c(Sc2ccccc2)nc2c(-c3cnc(N)nc3)nc(N3CCOCC3)nc21` (centres undefined) fall in the same range of IC50: 100 to 1000 nM for the first, 100 to 1000 nM for the second.

`CC(C)n1c(-c2ccc3c(c2)OCO3)nc2c(-c3cnc(N)nc3)nc(N3CCOCC3)nc21` and `CC(C)n1c(-c2ccsc2)nc2c(-c3cnc(N)nc3)nc(N3CCOCC3)nc21` cannot be ordered by IC50: < 100 nM for the first, < 100 nM for the second.

`CC(=O)Nc1cccc(-c2nc3c(-c4cnc(N)nc4)nc(N4CCOCC4)nc3n2C(C)C)c1` and `CSc1nc2c(-c3cnc(N)nc3)nc(N3CCOCC3)nc2n1C(C)C` cannot be ordered by IC50: < 100 nM for the first, < 100 nM for the second.

`CCSc1nc2c(-c3cnc(N)cn3)nc(N3CCOCC3)nc2n1C(C)CC` (centres undefined) and `CCC(C)n1c(SC)nc2c(-c3cnc(N)cn3)nc(N3CCOCC3)nc21` (centres undefined) fall in the same range of IC50: 100 to 1000 nM for the first, 100 to 1000 nM for the second.

First: CCC(C)n1c(SC)nc2c(-c3cnc(N)nc3)nc(N3CCOCC3)nc21 (centres undefined)
Second: CCSc1nc2c(-c3cnc(N)nc3)nc(N3CCOCC3)nc2n1C(C)C
The IC50 of the first is higher: 100 to 1000 nM for the first, < 100 nM for the second. The second is the more potent here.

`CCC(C)n1c(N2CCN(CC)CC2)nc2c(-c3cnc(N)nc3)nc(N3CCOCC3)nc21` (centres undefined) and `CCC(C)n1c(N2CCCC2)nc2c(-c3cnc(N)nc3)nc(N3CCOCC3)nc21` (centres undefined) fall in the same range of IC50: 100 to 1000 nM for the first, 100 to 1000 nM for the second.

`Nc1ncc(-c2nc(N3CCOCC3)nc3c2nc(NCC2CC2)n3C2CCCC2)cn1` and `CCCCNc1nc2c(-c3cnc(N)nc3)nc(N3CCOCC3)nc2n1C1CCCC1` cannot be ordered by IC50: < 100 nM for the first, < 100 nM for the second.

Compared with `CC(C)n1c(OC2CCCC2)nc2c(-c3cnc(N)nc3)nc(N3CCOCC3)nc21`, `CN(C)c1nc2c(-c3cnc(N)nc3)nc(N3CCOCC3)nc2n1C1CCCC1` is lower in IC50: 100 to 1000 nM for the first, < 100 nM for the second. The second is the more potent here.

`CCC(C)n1c(NC(C)C)nc2c(-c3cnc(N)cn3)nc(N3CCOCC3)nc21` (centres undefined) and `CCOc1nc2c(-c3cnc(N)nc3)nc(N3CCOCC3)nc2n1C(C)CC` (centres undefined) fall in the same range of IC50: 100 to 1000 nM for the first, 100 to 1000 nM for the second.

`Nc1ncc(-c2nc(N3CCOCC3)nc3c2nc(-c2ccsc2)n3C2CCCC2)cn1` and `CCC(C)n1c(-c2ccsc2)nc2c(-c3cnc(N)nc3)nc(N3CCOCC3)nc21` (centres undefined) cannot be ordered by IC50: < 100 nM for the first, < 100 nM for the second.

`CN1CCN(c2nc3c(-c4cnc(N)nc4)nc(N4CCOCC4)nc3n2C2CCCC2)CC1` and `CC1CCCCC1n1c(N(C)C)nc2c(-c3cnc(N)nc3)nc(N3CCOCC3)nc21` (centres undefined) fall in the same range of IC50: 100 to 1000 nM for the first, 100 to 1000 nM for the second.

`CCC(C)n1c(N2CCc3ccccc3C2)nc2c(-c3cnc(N)nc3)nc(N3CCOCC3)nc21` (centres undefined) and `CCC(C)n1c(N2CCCC2C)nc2c(-c3cnc(N)nc3)nc(N3CCOCC3)nc21` (centres undefined) fall in the same range of IC50: 100 to 1000 nM for the first, 100 to 1000 nM for the second.
